The values that follow come from US10259810B2, “N-sulfonylated pyrazolo[3,4-b]pyridin-6-carboxamides and method of use” (AbbVie S.à.r.l., priority 2015, dated 2019).

Assay [1] has as its target T1, ΔF508-CFTR (Homo sapiens, UniProt P13569, DEL508-508).
T1 construct: host or cells: CFBE41o-, doxycycline-inducible
As to the kind of experiment: CFTR cell surface levels using HRP-tagged ΔF508-CFTR expressing CFBE cells, in the presence of a co-corrector. Conditions: HRP-tagged ΔF508-CFTR CFBE cells, in the presence of 3 μM co-corrector; for EC50: read-out: EC50. In kind it is cell-based. In a few lines: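 Chemiluminescent read-out of surface HRP (15 min, dark) after PBS washes. Activity is normalized as 100×(sample−DMSO)/(3 μM co-corrector alone−DMSO).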

Assay [2] addresses T1, ΔF508-CFTR. As to the kind of experiment: CFTR cell surface levels using HRP-tagged ΔF508-CFTR expressing CFBE cells, intrinsic corrector capacity. In kind it is cell-based. On the set-up: % Activation: concentration or dose not given beside the values. Conditions: HRP-tagged ΔF508-CFTR expressing CFBE41o- cells, compound alone (intrinsic corrector capacity), 20 hours at 33° C.; for EC50: read-out: EC50. The gist of the method:
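Surface ΔF508-CFTR was measured as HRP chemiluminescence from an extracellular-loop-4 tag, expressed as percent activity between DMSO and a […] corrector control.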

T1 sequence (P13569 with tags, fused parts or gaps DEL508-508): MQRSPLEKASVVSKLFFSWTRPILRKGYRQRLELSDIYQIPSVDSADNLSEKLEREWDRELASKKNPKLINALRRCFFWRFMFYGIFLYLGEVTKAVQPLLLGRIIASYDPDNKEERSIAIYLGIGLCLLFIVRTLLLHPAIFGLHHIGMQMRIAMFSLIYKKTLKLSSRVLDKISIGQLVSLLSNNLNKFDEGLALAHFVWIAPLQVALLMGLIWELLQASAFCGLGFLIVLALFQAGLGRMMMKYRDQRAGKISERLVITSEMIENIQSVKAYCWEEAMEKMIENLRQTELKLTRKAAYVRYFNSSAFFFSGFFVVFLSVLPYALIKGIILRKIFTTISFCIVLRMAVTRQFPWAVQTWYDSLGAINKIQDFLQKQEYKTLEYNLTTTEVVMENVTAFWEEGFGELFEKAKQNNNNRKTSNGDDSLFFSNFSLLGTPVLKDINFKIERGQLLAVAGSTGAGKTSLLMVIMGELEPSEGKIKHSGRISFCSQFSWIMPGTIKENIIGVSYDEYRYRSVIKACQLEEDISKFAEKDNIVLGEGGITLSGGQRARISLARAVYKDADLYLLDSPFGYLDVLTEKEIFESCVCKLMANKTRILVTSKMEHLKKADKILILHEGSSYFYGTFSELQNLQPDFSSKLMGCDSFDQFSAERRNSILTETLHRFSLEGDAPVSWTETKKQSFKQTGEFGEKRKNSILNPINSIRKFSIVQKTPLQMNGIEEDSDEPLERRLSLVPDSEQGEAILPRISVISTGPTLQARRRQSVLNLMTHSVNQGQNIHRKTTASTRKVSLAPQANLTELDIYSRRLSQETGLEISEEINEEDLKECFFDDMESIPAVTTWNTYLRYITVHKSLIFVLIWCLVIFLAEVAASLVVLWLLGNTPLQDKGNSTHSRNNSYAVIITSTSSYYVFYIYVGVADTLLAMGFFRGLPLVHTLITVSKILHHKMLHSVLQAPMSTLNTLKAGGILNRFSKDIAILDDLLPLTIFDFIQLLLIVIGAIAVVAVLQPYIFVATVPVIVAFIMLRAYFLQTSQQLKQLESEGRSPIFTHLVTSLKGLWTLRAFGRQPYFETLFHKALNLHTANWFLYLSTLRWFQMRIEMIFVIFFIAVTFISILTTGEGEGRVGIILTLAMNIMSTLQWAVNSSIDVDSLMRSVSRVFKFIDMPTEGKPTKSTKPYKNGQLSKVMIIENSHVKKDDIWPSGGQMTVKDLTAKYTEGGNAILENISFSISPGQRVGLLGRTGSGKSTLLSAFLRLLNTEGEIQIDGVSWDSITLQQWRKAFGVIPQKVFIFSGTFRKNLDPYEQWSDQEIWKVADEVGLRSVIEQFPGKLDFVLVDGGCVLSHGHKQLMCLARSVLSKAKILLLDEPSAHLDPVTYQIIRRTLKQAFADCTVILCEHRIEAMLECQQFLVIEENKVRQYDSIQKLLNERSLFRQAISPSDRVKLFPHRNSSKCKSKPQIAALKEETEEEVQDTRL

For the compound `CC(C)c1nn(-c2cccc(N3CCOCC3)c2)c2nc(C(=O)NS(C)(=O)=O)cc(-c3cnc(N(C)C)nc3)c12` [Compound 29, 4-[2-(dimethylamino)pyrimidin-5-yl]-N-(methanesulfonyl)-1-[3-(morpholin-4-yl)phenyl]-3-(propan-2-yl)-1H-pyrazolo[3,4-b]pyridine-6-carboxamide], the “% Activation” value turned out to be 591.4% on ΔF508-CFTR [1] and 328.4% on ΔF508-CFTR [2]. For the same compound, the 50% effective concentration (EC50) at ΔF508-CFTR [1] stood at 824 nM; at ΔF508-CFTR [2], 645 nM.
The corresponding values for `CC(C)c1nn(-c2cccc(N3CCOCC3)c2)c2nc(C(=O)NS(C)(=O)=O)cc(-c3ccc(N(C)C)nc3)c12` [Compound 31, 4-[6-(dimethylamino)pyridin-3-yl]-N-(methanesulfonyl)-1-[3-(morpholin-4-yl)phenyl]-3-(propan-2-yl)-1H-pyrazolo[3,4-b]pyridine-6-carboxamide] are 423.27%, 203.4%, 204 nM and 318 nM.
Take `CCS(=O)(=O)NC(=O)c1cc(-c2ccc(N(C)C)nc2)c2c(C(C)C)nn(-c3cccc(N4CCOCC4)c3)c2n1` [Compound 32, 4-[6-(dimethylamino)pyridin-3-yl]-N-(ethanesulfonyl)-1-[3-(morpholin-4-yl)phenyl]-3-(propan-2-yl)-1H-pyrazolo[3,4-b]pyridine-6-carboxamide]: at ΔF508-CFTR [1], the “% Activation” value is on record as 526% and the EC50 was 234 nM. Besides, at ΔF508-CFTR [2], the “% Activation” value is 277.65% and the EC50 came out at 372 nM.
As to `Cc1nn(-c2ccccc2)c2nc(C(=O)NS(C)(=O)=O)cc(-c3ccc(N(C)C)cc3)c12` [Compound 33, 4-[4-(dimethylamino)phenyl]-N-(methanesulfonyl)-3-methyl-1-phenyl-1H-pyrazolo[3,4-b]pyridine-6-carboxamide], on ΔF508-CFTR [1], the “% Activation” value came to 315.6% and the half-maximal effective concentration (EC50) stood at 471 nM. In addition, at ΔF508-CFTR [2], the “% Activation” value is 109% and the half-maximal effective concentration (EC50) was 2580 nM.
Consider `CCS(=O)(=O)NC(=O)c1cc(-c2ccc(N3CCOCC3)nc2)c2c(C(C)C)nn(-c3ccccc3)c2n1` [Compound 35, N-(ethanesulfonyl)-4-[6-(morpholin-4-yl)pyridin-3-yl]-1-phenyl-3-(propan-2-yl)-1H-pyrazolo[3,4-b]pyridine-6-carboxamide], for which, at ΔF508-CFTR [1], the “% Activation” value came out at 509.7% and the EC50 was 348 nM. Further, on ΔF508-CFTR [2], the “% Activation” value came out at 265.23% and the 50% effective concentration (EC50) was 542 nM.
`COC1CN(c2cccc(-n3nc(C(C)C)c4c(-c5ccc(N6CCOCC6)cc5)cc(C(=O)NS(C)(=O)=O)nc43)c2)C1` [Compound 36, N-(methanesulfonyl)-1-[3-(3-methoxyazetidin-1-yl)phenyl]-4-[4-(morpholin-4-yl)phenyl]-3-(propan-2-yl)-1H-pyrazolo[3,4-b]pyridine-6-carboxamide]: on ΔF508-CFTR [1], the “% Activation” value is reported as 572.93% and the 50% effective concentration (EC50) came out at 246 nM. At ΔF508-CFTR [2], the “% Activation” value was determined as 384.57% and the EC50 was found to be 416 nM.
As for `Cc1nn(-c2ccccc2)c2nc(C(=O)NS(C)(=O)=O)cc(-c3ccc(N4CCOCC4)nc3)c12` [Compound 37, N-(methanesulfonyl)-3-methyl-4-[6-(morpholin-4-yl)pyridin-3-yl]-1-phenyl-1H-pyrazolo[3,4-b]pyridine-6-carboxamide], on ΔF508-CFTR [1], the “% Activation” value was 457.25% and the EC50 stood at 1160 nM. Besides, on ΔF508-CFTR [2], the “% Activation” value is recorded as 222.85% and the concentration giving a half-maximal response (EC50) amounted to 1660 nM.
As for `CC(C)c1nn(C2CCC(F)(F)CC2)c2nc(C(=O)NS(C)(=O)=O)cc(-c3ccc(N4CCOCC4)cc3)c12` [Compound 38, 1-(4,4-difluorocyclohexyl)-N-(methanesulfonyl)-4-[4-(morpholin-4-yl)phenyl]-3-(propan-2-yl)-1H-pyrazolo[3,4-b]pyridine-6-carboxamide], at ΔF508-CFTR [1], the “% Activation” value was 447.7% and the EC50 was found to be 581 nM. For the same compound, on ΔF508-CFTR [2], the “% Activation” value is 182% and the concentration giving a half-maximal response (EC50) was 850 nM.
As for `CC(C)c1nn(C2CCCOC2)c2nc(C(=O)NS(C)(=O)=O)cc(-c3ccc(N4CCOCC4)cc3)c12` (stereo not shown) [Compound 39, N-(methanesulfonyl)-4-[4-(morpholin-4-yl)phenyl]-1-(oxan-3-yl)-3-(propan-2-yl)-1H-pyrazolo[3,4-b]pyridine-6-carboxamide], at ΔF508-CFTR [1], the “% Activation” value worked out at 378.63% and the EC50 was 508 nM. At ΔF508-CFTR [2], the “% Activation” value is listed as 143.4% and the concentration giving a half-maximal response (EC50) came to 838 nM.
The corresponding values for `CCS(=O)(=O)NC(=O)c1cc(-c2ccc(N3CCOCC3)cc2)c2c(C(C)C)nn(C3CCCOC3)c2n1` (stereo not shown) [Compound 40, N-(ethanesulfonyl)-4-[4-(morpholin-4-yl)phenyl]-1-(oxan-3-yl)-3-(propan-2-yl)-1H-pyrazolo[3,4-b]pyridine-6-carboxamide] are 373.43%, 423 nM, 147.1% and 451 nM.
In the case of `Cc1nn(-c2ccccc2)c2nc(C(=O)NS(C)(=O)=O)cc(-c3ccc(N4CC(N(C)C)C4)cc3)c12` [Compound 41, 4-{4-[3-(dimethylamino)azetidin-1-yl]phenyl}-N-(methanesulfonyl)-3-methyl-1-phenyl-1H-pyrazolo[3,4-b]pyridine-6-carboxamide], at ΔF508-CFTR [1], the “% Activation” value worked out at 253.3% and the 50% effective concentration (EC50) was 1140 nM. At ΔF508-CFTR [2], the “% Activation” value is given as 52.497% and the half-maximal effective concentration (EC50) was 817 nM.
Regarding `CCS(=O)(=O)NC(=O)c1cc(-c2ccc(N3CC(N(C)C)C3)cc2)c2c(C)nn(-c3ccccc3)c2n1` [Compound 42, 4-{4-[3-(dimethylamino)azetidin-1-yl]phenyl}-N-(ethanesulfonyl)-3-methyl-1-phenyl-1H-pyrazolo[3,4-b]pyridine-6-carboxamide], at ΔF508-CFTR [1], the “% Activation” value is 226.3% and the 50% effective concentration (EC50) is 378 nM. On ΔF508-CFTR [2], the “% Activation” value was 45.225% and the EC50 turned out to be 2120 nM.
Turning to `CC(C)c1nn(-c2cccc(N3CC(C)(C)C3)c2)c2nc(C(=O)NS(C)(=O)=O)cc(-c3ccc(N4CCOCC4)cc3)c12` [Compound 43, 1-[3-(3,3-dimethylazetidin-1-yl)phenyl]-N-(methanesulfonyl)-4-[4-(morpholin-4-yl)phenyl]-3-(propan-2-yl)-1H-pyrazolo[3,4-b]pyridine-6-carboxamide], at ΔF508-CFTR [1], the “% Activation” value stood at 627% and the EC50 stood at 289 nM. In addition, on ΔF508-CFTR [2], the “% Activation” value turned out to be 379.67% and the EC50 turned out to be 299 nM.
Regarding `CC(C)c1nn(C2CCCCC2)c2nc(C(=O)NS(C)(=O)=O)cc(-c3ccc(N4CCOCC4)nc3)c12` [Compound 44, 1-cyclohexyl-N-(methanesulfonyl)-4-[6-(morpholin-4-yl)pyridin-3-yl]-3-(propan-2-yl)-1H-pyrazolo[3,4-b]pyridine-6-carboxamide], the “% Activation” value is 412.63% at ΔF508-CFTR [1] and 203.87% on ΔF508-CFTR [2]. In addition, the EC50 on ΔF508-CFTR [1] was 276 nM; at ΔF508-CFTR [2], 404 nM.
`CCS(=O)(=O)NC(=O)c1cc(-c2ccc(N3CCOCC3)cc2)c2c(C(C)C)nn(C3CCCCC3)c2n1` [Compound 45, 1-cyclohexyl-N-(ethanesulfonyl)-4-[4-(morpholin-4-yl)phenyl]-3-(propan-2-yl)-1H-pyrazolo[3,4-b]pyridine-6-carboxamide]: at ΔF508-CFTR [1], the “% Activation” value turned out to be 438.4% and the EC50 worked out at 203 nM. Also, at ΔF508-CFTR [2], the “% Activation” value came out at 210.97% and the EC50 amounted to 327 nM.
On to `CC(C)c1nn(-c2cccc(N3CCC(F)C3)c2)c2nc(C(=O)NS(C)(=O)=O)cc(-c3ccc(N4CCOCC4)cc3)c12` (stereo not shown) [Compound 46, 1-[3-(3-fluoropyrrolidin-1-yl)phenyl]-N-(methanesulfonyl)-4-[4-(morpholin-4-yl)phenyl]-3-(propan-2-yl)-1H-pyrazolo[3,4-b]pyridine-6-carboxamide], for which, at ΔF508-CFTR [1], the “% Activation” value is recorded as 643.27% and the half-maximal effective concentration (EC50) is 446 nM. For the same compound, on ΔF508-CFTR [2], the “% Activation” value was 457.3% and the EC50 amounted to 706 nM.
With `Cc1nn(C2CCCCC2)c2nc(C(=O)NS(C)(=O)=O)cc(-c3ccc(N4CCOCC4)nc3)c12` [Compound 47, 1-cyclohexyl-N-(methanesulfonyl)-3-methyl-4-[6-(morpholin-4-yl)pyridin-3-yl]-1H-pyrazolo[3,4-b]pyridine-6-carboxamide], at ΔF508-CFTR [1], the “% Activation” value amounted to 408.77% and the EC50 amounted to 1600 nM. Further, at ΔF508-CFTR [2], the “% Activation” value was 169.73% and the 50% effective concentration (EC50) is 1860 nM.
Take `CCS(=O)(=O)NC(=O)c1cc(-c2ccc(N3CCOCC3)nc2)c2c(C)nn(C3CCCCC3)c2n1` [Compound 48, 1-cyclohexyl-N-(ethanesulfonyl)-3-methyl-4-[6-(morpholin-4-yl)pyridin-3-yl]-1H-pyrazolo[3,4-b]pyridine-6-carboxamide]: on ΔF508-CFTR [1], the “% Activation” value turned out to be 417.8% and the EC50 turned out to be 1150 nM. At ΔF508-CFTR [2], the “% Activation” value was 160.9% and the EC50 was determined as 1200 nM.
On to `Cc1nn(C2CCCCC2)c2nc(C(=O)NS(C)(=O)=O)cc(-c3cnc(N(C)C)nc3)c12` [Compound 49, 1-cyclohexyl-4-[2-(dimethylamino)pyrimidin-5-yl]-N-(methanesulfonyl)-3-methyl-1H-pyrazolo[3,4-b]pyridine-6-carboxamide], for which, at ΔF508-CFTR [1], the “% Activation” value is listed as 338% and the EC50 stood at 2000 nM. For the same compound, on ΔF508-CFTR [2], the “% Activation” value amounted to 115.3% and the concentration giving a half-maximal response (EC50) amounted to 2570 nM.
